Test results published in ChEMBL document CHEMBL1156989, “Discovery of novel small molecule orally bioavailable C-X-C chemokine receptor 4 antagonists that are potent inhibitors of T-tropic (X4) HIV-1 replication” (J Med Chem, 2010).

Assays:
[1] = test system: Human immunodeficiency virus 1; assay: Antiviral activity against HIV1 NL4.3 infected in human MT4 cells expressing CD4 and CXCR4 assessed as inhibition of virus-induced cytopathicity; format: functional, organism-based; settings: Human immunodeficiency virus 1, NL4.3, MT4
[2] = Cytotoxicity against human MT4 cells expressing CD4 and CXCR4 assessed as cell viability
[3] = molecular target: T1, C-X-C chemokine receptor type 4 (Homo sapiens, UniProt P61073); assay: Antagonist activity at CXCR4 in human CEM-CCRF cells assessed as inhibition of SDF-1-induced calcium flux; format: functional, cell-based
[4] = molecular target: T1, C-X-C chemokine receptor type 4; assay: Inhibition of anti-CXCR4 12G5 monoclonal antibody to CXCR4 in human SUP-T1 cells pretreated for 30 mins by flow cytometry; format: cell-based
[5] = MT4 cells expressing CD4 and CXCR4

T1 sequence (P61073 whole entry): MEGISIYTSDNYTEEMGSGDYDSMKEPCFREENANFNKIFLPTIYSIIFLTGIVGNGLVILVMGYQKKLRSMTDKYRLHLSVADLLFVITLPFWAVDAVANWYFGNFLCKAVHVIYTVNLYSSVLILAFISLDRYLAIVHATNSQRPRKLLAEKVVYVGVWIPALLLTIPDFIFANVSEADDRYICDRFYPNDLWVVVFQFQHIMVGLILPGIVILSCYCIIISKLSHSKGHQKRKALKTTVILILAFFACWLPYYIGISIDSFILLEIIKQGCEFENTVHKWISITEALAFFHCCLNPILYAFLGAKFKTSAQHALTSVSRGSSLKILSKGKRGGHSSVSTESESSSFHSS

Row | SMILES | IC50 [1] [nM] | CC50 [2, 5] [nM] | IC50 [3] [nM] | CC50 ([2]; mt4) [nM] | IC50 [4] [nM]
1 | c1ccc(CCN(Cc2ccc(CNCc3ccccn3)cc2)C2CCCc3cccnc32)nc1 (stereo not drawn) | 2100 | > 118000 | – | – | –
2 | NCc1cccc(CN(Cc2nc3ccccc3[nH]2)C2CCCc3cccnc32)c1 (stereo not drawn) | 575 | 45900 | 1400 | – | –
3 | NCCCN(Cc1nc2ccccc2[nH]1)C1CCCc2cccnc21 (stereo not drawn) | 77 | 32900 | 68 | – | –
4 | NCCCCN(Cc1nc2ccccc2[nH]1)C1CCCc2cccnc21 (stereo not drawn) | 4.8 | 160000 | – | – | –
5 | NCCCCCCN(Cc1nc2ccccc2[nH]1)C1CCCc2cccnc21 (stereo not drawn) | 101 | – | 75 | 30200 | –
6 | c1ccc(CNCCN(Cc2ccc(CNCc3ccccn3)cc2)C2CCCc3cccnc32)nc1 (stereo not drawn) | 60 | 21000 | – | – | –
7 | NC/C=C\CN(Cc1nc2ccccc2[nH]1)C1CCCc2cccnc21 (stereo not drawn) | 15 | 51900 | 77 | – | –
8 | NC/C=C/CN(Cc1nc2ccccc2[nH]1)C1CCCc2cccnc21 (stereo not drawn) | 28 | 50800 | 160 | – | –
9 | NCC#CCN(Cc1nc2ccccc2[nH]1)C1CCCc2cccnc21 (stereo not drawn) | 170 | 10800 | 973 | – | –
10 | c1ccc(CNCc2ccc(CN(Cc3nc4ccccc4s3)C3CCCc4cccnc43)cc2)nc1 (stereo not drawn) | 4600 | 22300 | – | – | –
11 | c1ccc(CNCc2ccc(CNC3CCCCc4cccnc43)cc2)nc1 (stereo not drawn) | 2500 | – | – | – | –
12 | c1ccc(CNCc2ccc(CN(CCc3nc4ccccc4[nH]3)C3CCCc4cccnc43)cc2)nc1 (stereo not drawn) | 1100 | 23100 | – | – | –
13 | c1ccc(CNCc2ccc(CN(Cc3nc4ccccc4[nH]3)[C@@H]3CCCc4cccnc43)cc2)nc1 | 1080 | – | – | – | 29200
14 | c1ccc(CNCc2ccc(CN(Cn3cnc4ccccc43)C3CCCc4cccnc43)cc2)nc1 (stereo not drawn) | 18800 | 21000 | – | – | –
15 | c1ccc(CNCc2ccc(CN(Cc3ccccn3)C3CCc4cccnc43)cc2)nc1 (stereo not drawn) | 4900 | 124000 | – | – | –
16 | c1ccc(CNCc2ccc(CN(Cc3ccccn3)C3CCCc4cccnc43)cc2)nc1 (stereo not drawn) | 270 | 44000 | – | – | –
17 | c1ccc(CNCc2ccc(CNC3CCc4cccnc43)cc2)nc1 (stereo not drawn) | 14100 | – | – | – | –
18 | c1ccc(CNCc2ccc(CNC3CCCc4cccnc43)cc2)nc1 (stereo not drawn) | 2700 | – | – | – | –
19 | c1ccc(CN(Cc2ccc(CNCc3ccccn3)cc2)C2CCCc3cccnc32)cc1 (stereo not drawn) | > 4300 | 21000 | – | – | –
20 | c1ccc(CNCc2ccc(CN(Cc3ncc[nH]3)C3CCCc4cccnc43)cc2)nc1 (stereo not drawn) | 200 | 500 | – | – | –
